Reference: patent publication US11571403B2, “Methods for the treatment of non-alcoholic steatohepatitis” (Eiger Biopharmaceuticals, Inc., priority 2016, dated 2023)

How the values were obtained:
[1] = system: STAM mouse model for NASH; experiment: Fibrosis area by Sirius red staining, STAM mouse NASH model (Example 1); format: in vivo; settings: 7 to 9 weeks of age
Source text: The STAM™ mouse is a model for NASH created by a combination of chemical and dietary interventions in C57BL/6 mice that manifest NASH at about 8 weeks, which progresses to fibrosis at about 12 weeks and then progresses to HCC at about 16 weeks. See, Saito et al., Sci. Rep. 2015, 5:12466.
In the study, the control groups were as follows: (i) Untreated Disease Control—a group of STAM mice injected with streptozotocin (STZ, Sigma-Aldrich, USA) at 2 days old, and fed a high fat diet (HFD, 57 kcal % fat, Cat #HFD32, CLEA Japan, Japan) starting at 4 weeks old; and (ii) Positive Control—a group of STAM mice treated with telmisartan (10 mg/kg QD from 7 to 9 weeks). In addition to these control groups, test groups of STAM mice treated with a low dose of ubenimex (5 mg/kg ubenimex BID from 7 to 9 weeks) or a high dose of ubenimex (25 mg/kg BID from 7 to 9 weeks), were included in the study. The low dose is equivalent to a human dose of 30 mg BID. The high dose is equivalent to a human dose of 150 mg BID. The viability, clinical signs and behavior were monitored daily, including body weight, signs of toxicity, moribundity and mortality. The mice were maintained in a SPF facility under controlled conditions of temperature (23±2° C.), humidity (45±10%), lighting (12-hour artificial light and dark cycles; light from 8:00 to 20:00) and air exchange. A high pressure was maintained in the experimental room to prevent contamination of the facility. The mice were housed in TPX cages (CLEA Japan) with a maximum of 4 mice per case.
All groups of mice were sacrificed at 9 weeks. Once sacrificed, the body weight of each mouse was recorded. The liver of each mouse was removed and weighed. The liver-to-body weight ratio was determined for each mouse. Blood serum levels of CK-18, ALT, and liver triglycerides were determined for each mouse. The livers were then sectioned and stained with hematoxylin and eosin (“HE”) stain, as well as Sirius red staining, to determine liver steatosis (ballooning) and fibrosis, respectively.

[2] = system: STAM model of NASH fibrosis; experiment: NAFLD Activity Score by HE staining, STAM model of NASH with fibrosis (Example 3); format: in vivo, mouse; settings: for Steatosis score 0, number of mice: score 0 = <5%; for Hepatocyte ballooning score 0, number of mice: score 0 = None; for Steatosis score 1, number of mice: score 1 = 5-33%; for Hepatocyte ballooning score 1, number of mice: score 1 = Few balloon cells; for Lobular inflammation score 2, number of mice: score 2 = 2-4 foci/200x; for Lobular inflammation score 3, number of mice: score 3 = >4 foci/200x; for Steatosis score 2, number of mice: score 2 = >33-66%; for Hepatocyte ballooning score 2, number of mice: score 2 = Many cells/prominent ballooning
Procedure: Ubenimex or telmisartan was administered orally in a volume at 10 mL/kg. Ubenimex was administered at a dose of 5 mg/kg once daily or twice daily. Telmisartan was administered at a dose of 5 mg/kg once daily.
For HE staining, sections were cut from paraffin blocks of liver tissue prefixed in Bouin's solution and stained with Lillie-Mayer's hematoxylin (Muto Pure Chemicals Co., Ltd., Japan) and eosin solution (Wako Pure Chemical Industries, Ltd., Japan). NAFLD Activity Score (NAS) was calculated according to the criteria of Kleiner (Kleiner et al., Hepatology, 2005, 41:1313). To visualize collagen deposition, Bouin's fixed liver sections were stained using picro-Sirius red solution (Waldeck, Germany). For quantitative analysis of fibrosis area, bright field images of Sirius red-staining sections were captured around the central vein using a digital camera (DFC295; Leica, Germany) at 200-fold magnification, and the positive areas in 5 fields/section were measured using ImageJ software (National Institutes of Health, USA).
Statistical tests: Statistical analyses were performed using Bonferroni Multiple Comparison Test on GraphPad Prism 6 (GraphPad Software Inc., USA). P values <0.05 were considered statistically significant. A trend or tendency was assumed when a one-tailed t-test returned P values <0.1. Results were expressed as mean±SD.
Study groups: The following study groups were used. Group 1 (Vehicle): 8 NASH mice were orally administered vehicle (RO water) in a volume of 10 mL/kg twice daily from 6 to 11 weeks of age. Group 2 (Ubenimex QD for 5 weeks): 8 NASH mice were orally administered vehicle supplemented with ubenimex at a dose of 5 mg/kg once daily from 6 to 11 weeks of age. Group 3 (Ubenimex BID for 5 weeks): 8 NASH mice were orally administered vehicle supplemented with ubenimex at a dose of 5 mg/kg twice daily from 6 to 11 weeks of age. Group 4 (Ubenimex BID for 2 weeks): 8 NASH mice were orally administered vehicle supplemented with ubenimex at a dose of 5 mg/kg twice daily from 9 to 11 weeks of age. Group 5 (Telmisartan for 5 weeks): 8 NASH mice were orally administered pure water supplemented with telmisartan at a dose of 5 mg/kg once daily from 6 to 11 weeks of age.

[3] = telmisartan 5 mg/kg QD oral, 6 to 11 weeks of age
[4] = ubenimex 5 mg/kg BID oral, 6 to 11 weeks of age
[5] = ubenimex 5 mg/kg BID oral, 9 to 11 weeks of age
[6] = ubenimex 5 mg/kg QD oral, 6 to 11 weeks of age

CCCc1nc2c(C)cc(-c3nc4ccccc4n3C)cc2n1Cc1ccc(-c2ccccc2C(=O)O)cc1 [Telmisartan, telmisartan]
Sirius red-positive area (fibrosis area, mean ± SD) ([1]; telmisartan 10 mg/kg QD): 0.71 ± 0.15% | Steatosis score 0, number of mice [2, 3]: 1 | Lobular inflammation score 0, number of mice ([2]; score 0 = No foci, telmisartan 5 mg/kg QD oral, 6 to 11 weeks of age): 1 | Hepatocyte ballooning score 0, number of mice [2, 3]: 3 | Steatosis score 1, number of mice [2, 3]: 5 | Hepatocyte ballooning score 1, number of mice [2, 3]: 3 | Lobular inflammation score 2, number of mice [2, 3]: 3 | Lobular inflammation score 3, number of mice [2, 3]: 2 | NAS (mean ± SD) [2, 3]: 3.3 ± 1.0

CC(C)C[C@H](NC(=O)[C@@H](O)[C@H](N)Cc1ccccc1)C(=O)O [Ubenimex, (2S)-2-[[(2S,3R)-3-amino-2-hydroxy-4-phenylbutanoyl]amino]-4-methylpentanoic acid]
Sirius red-positive area (fibrosis area, mean ± SD) ([1]; ubenimex 5 mg/kg BID): 0.80 ± 0.16% | Sirius red-positive area (fibrosis area, mean ± SD) ([1]; ubenimex 25 mg/kg BID): 1.05 ± 0.14% | Steatosis score 0, number of mice [2, 4]: 1 | Steatosis score 0, number of mice [2, 5]: 1 | Hepatocyte ballooning score 0, number of mice [2, 4]: 5 | Hepatocyte ballooning score 0, number of mice [2, 5]: 4 | Hepatocyte ballooning score 0, number of mice [2, 6]: 2 | Steatosis score 1, number of mice [2, 4]: 4 | Steatosis score 1, number of mice [2, 5]: 4 | Steatosis score 1, number of mice [2, 6]: 6 | Lobular inflammation score 1, number of mice ([2]; score 1 = <2 foci/200x, ubenimex 5 mg/kg QD oral, 6 to 11 weeks of age): 1 | Hepatocyte ballooning score 1, number of mice [2, 5]: 1 | Hepatocyte ballooning score 1, number of mice [2, 6]: 4 | Lobular inflammation score 2, number of mice [2, 4]: 2 | Lobular inflammation score 2, number of mice [2, 5]: 4 | Lobular inflammation score 2, number of mice [2, 6]: 3 | Steatosis score 2, number of mice [2, 4]: 1 | Steatosis score 2, number of mice [2, 5]: 1 | Hepatocyte ballooning score 2, number of mice [2, 4]: 1 | Hepatocyte ballooning score 2, number of mice [2, 5]: 1 | Lobular inflammation score 3, number of mice [2, 4]: 4 | Lobular inflammation score 3, number of mice [2, 5]: 2 | Lobular inflammation score 3, number of mice [2, 6]: 2 | NAS (mean ± SD) [2, 4]: 4.0 ± 1.7 | NAS (mean ± SD) [2, 5]: 3.8 ± 1.0 | NAS (mean ± SD) [2, 6]: 3.8 ± 0.8
